Source: patent US12225904B2, “Phenylpyrazole compound and method for controlling plant disease” (SUMITOMO CHEMICAL COMPANY, LIMITED, priority 2019, dated 2025)

Tested on: soybean powdery mildew (Microsphaera diffusa)
Experiment: Test Example 13: control test against soybean powdery mildew, foliar spray after inoculation
Type: in vivo
Settings: 200 ppm foliar spray 2 days after inoculation; soybean cv Kurosengoku

CCS(=O)(=O)n1ccc(-c2ccc(Cl)c([N+](=O)[O-])c2)n1 [compound 36]
lesion area compared to the lesion area in an untreated soybean: ≤ 30%
